The assay concerns Pseudomonas putida biofilms. Description: Biofilm eradication (MBEC) test: viable plate counts of biofilms on stainless steel 316 coupons from a CDC Biofilm reactor after two hours of treatment. Format: cell-based. Particulars: 20 mg/L MCA alone, viable biofilm population vs untreated control, 2 h, 28° C.

One compound from patent US11104593B2, “Compositions exhibiting synergy in biofilm control” (SOLENIS TECHNOLOGIES, L.P., priority 2017, dated 2021) can be followed below.

Method: In this work the efficacy of the agents alone and in combination were determined by measuring the number of viable cells in model biofilms remaining after treatment. The Minimum Biofilm Eradication value (MBEC) is defined as a 95% reduction in the number of viable cells compared to the untreated control.
Dose response studies were performed to determine the Minimum Biofilm Eradication Concentration (MBEC) for monochloramine and PEI alone. The MBEC is defined as the concentration of agent that reduces the viable biofilm population by 95% of the untreated control value as measured by viable plate counts. Experiments were then performed to determine the result of combining the two agents, oxidizing biocide monochloramine and dispersant PEI alone, on biofilm populations. The experiments examined three concentrations of monochloramine with four concentrations of PEI alone.
M9YG media is a simple minimal salt medium supplemented with 500 mg/L glucose and 0.01% yeast extract. The salts composition was intended to mimic a typical cooling tower water composition. […]
Briefly, biofilms were grown on stainless steel 316 coupons in a CDC Biofilm reactor using M9YG minimal salts growth media for a period of twenty-four hours. […] Viable cells released into the fluid were then determined by a plating method.

As to `NCl` [MCA, monochloramine], the “% reduction” value came to 93.58%. Moreover, the “% reduction” value (listed as monochloramine) is “greater than 90%”.
